Experimental data: patent publication US8940310B2, “Methods of treatment using TLR7 and/or TLR9 inhibitors” (Dynavax Technologies Corporation, priority 2010, dated 2015)
[I] = hypoxanthine (inosine); d = 2'-deoxy (DNA); m = 2'-O-methyl

System: human B-cells
Experiment: Human B-cells cultured in the presence of IRPs, IL-6
[1] = Experiment # 4, Max Conc 4.0 uM
[2] = Experiment # 7, Max Conc 4.0 uM
[3] = Experiment # 10, Max Conc 2.0 uM
[4] = Experiment # 5, Max Conc 4.0 uM
[5] = Experiment # 6, Max Conc 4.0 uM
[6] = Experiment # 11, Max Conc 2.0 uM
[7] = Experiment # 8, Max Conc 2.0 uM
[8] = Experiment # 2, Max Conc 4.0 uM
[9] = Experiment # 1, Max Conc 4.0 uM
[10] = Experiment # 9, Max Conc 2.0 uM

Procedure: For the human B-cell assay, B-cells were purified from total blood cells obtained from healthy donors using magnetic beads (CD19 positive). Cells were resuspended in fresh medium (RPMI 1640 with 10% fetal calf serum, 50 units/mL penicillin, 50 μg/mL streptomycin, and 2 mM glutamine). At 48 hours, supernatants were collected and cytokine levels, IL-6, were measured using immunoassay.
To further investigate the effect of IRPs on B-cell stimulatory activity, a wide variety of IRP sequences were assayed for IL-6, along with positive and negative controls. The experiment was performed as described in Example 1 using doses of IRP of either 4.0 μM or 2.0 μM. The positive control was an immunostimulatory sequence (ISS) with SEQ ID NO:157. […] The results are presented as the average normalized IL-6 response over several experiments.

“5′-TGCTGCTCCTGGAGGGGTTGT-3′ (DNA TGCTGCTCCTGGAGGGGTTGT; DNA, backbone and methylation of C not given here; further chemistry not fully specified) [SEQ ID NO:60]” was tested, and the “Normalized IL-6 Response (Percentage of Positive Control)” value [1] was 10% and the “Normalized IL-6 Response (Percentage of Positive Control)” value [2] was 10%.
In the case of “5′-UGC TGC TCC TGG AGI GGT GTT GT (DNA UGCTGCTCCTGGAGNGGTGTTGT; sugars from the 5' end m3 d20, [I] at 15, backbone not given here) [SEQ ID NO:182]”, the “Normalized IL-6 Response (Percentage of Positive Control)” value [3] was 53%.
“5′-TGCTGCTCCTTGAGGGGTTGT-3′ (DNA TGCTGCTCCTTGAGGGGTTGT; DNA, backbone and methylation of C not given here; further chemistry not fully specified) [SEQ ID NO:59]” was tested, and the “Normalized IL-6 Response (Percentage of Positive Control)” value [1] was 12% and the “Normalized IL-6 Response (Percentage of Positive Control)” value [2] was 12%.
In the case of “5′-TGCTCCTGGAGGGGTTGTAAGTTTGT-3′ (DNA TGCTCCTGGAGGGGTTGTAAGTTTGT; DNA, backbone and methylation of C not given here; further chemistry not fully specified) [SEQ ID NO:68]”, the “Normalized IL-6 Response (Percentage of Positive Control)” value [4] was 12% and the “Normalized IL-6 Response (Percentage of Positive Control)” value [5] was 6%.
In the case of “5′-TGC TGC TCC TTG AGI GGT GTT GT (DNA TGCTGCTCCTTGAGNGGTGTTGT; DNA, [I] at 15, backbone not given here) [SEQ ID NO:179]”, the “Normalized IL-6 Response (Percentage of Positive Control)” value [6] was 40%.
In the case of “5′-UGC TGC TCC TTG AGI GGT TGT AAG T (DNA UGCTGCTCCTTGAGNGGTTGTAAGT; sugars from the 5' end m3 d22, [I] at 15, backbone not given here) [SEQ ID NO:129]”, the “Normalized IL-6 Response (Percentage of Positive Control)” value [3] was 51%.
With “5′-UGC TGC TCC TGG AGI GGT TGT AAG T (DNA UGCTGCTCCTGGAGNGGTTGTAAGT; sugars from the 5' end m3 d22, [I] at 15, backbone not given here) [SEQ ID NO:130]” the “Normalized IL-6 Response (Percentage of Positive Control)” value [3] was 49%.
“5′-UGC TTG TCC TGG AGI GGT GTT GT (DNA UGCTTGTCCTGGAGNGGTGTTGT; sugars from the 5' end m3 d20, [I] at 15, backbone not given here) [SEQ ID NO:124]” was tested, and the “Normalized IL-6 Response (Percentage of Positive Control)” value [7] was 33%.
In the case of “5′-UGC TTG TCC TGG AGI GGT TG-HEG-T (DNA NNNTTGTCCTGGAGNGGTTGNT; inosine, internal HEG spacer, chemistry not fully specified) [SEQ ID NO:142]”, the “Normalized IL-6 Response (Percentage of Positive Control)” value [8] was 35% and the “Normalized IL-6 Response (Percentage of Positive Control)” value [7] was 22%.
In the case of “5′-UGC TGC TCC TTG AGI GGT TGT (DNA UGCTGCTCCTTGAGNGGTTGT; sugars from the 5' end m3 d18, [I] at 15, backbone not given here) [SEQ ID NO:127]”, the “Normalized IL-6 Response (Percentage of Positive Control)” value [3] was 46%.
In the case of “5′-TGCTGCTCCTGGAGGGGTTGTTTGT-3′ (DNA TGCTGCTCCTGGAGGGGTTGTTTGT; DNA, backbone and methylation of C not given here; further chemistry not fully specified) [SEQ ID NO:57]”, the “Normalized IL-6 Response (Percentage of Positive Control)” value [4] was 22% and the “Normalized IL-6 Response (Percentage of Positive Control)” value [5] was 17%.
In the case of “5′-UGC TGC TCC TTG AGI GGT TGT (DNA UGCTGCTCCTTGAGNGGTTGT; sugars from the 5' end m3 d18, [I] at 15, backbone not given here) [SEQ ID NO:114]”, the “Normalized IL-6 Response (Percentage of Positive Control)” value [1] was 40%, the “Normalized IL-6 Response (Percentage of Positive Control)” value [4] was 39% and the “Normalized IL-6 Response (Percentage of Positive Control)” value [5] was 39%. For the same substance, the “Normalized IL-6 Response (Percentage of Positive Control)” value [2] was 40%.
For “5′-TGC TGC TCC TTG AGI GGT TGT AAG T (DNA TGCTGCTCCTTGAGNGGTTGTAAGT; DNA, [I] at 15, backbone not given here) [SEQ ID NO:181]”, the “Normalized IL-6 Response (Percentage of Positive Control)” value [6] was 38%.
“5′-UGC TGC TCC TTG AGI GGT TGT (DNA UGCTGCTCCTTGAGNGGTTGT; sugars from the 5' end m3 d18, [I] at 15, backbone not given here) [SEQ ID NO:126]” was tested, and the “Normalized IL-6 Response (Percentage of Positive Control)” value [6] was 37%.
“5′-TGC TCC TGG AGG GGT TGT-HEG-HEG-3′ (DNA TGCTCCTGGAGGGGTTGTNN; 3' HEG-HEG, chemistry not fully specified) [SEQ ID NO:141]” was tested, and the “Normalized IL-6 Response (Percentage of Positive Control)” value [1] was 8% and the “Normalized IL-6 Response (Percentage of Positive Control)” value [2] was 8%.
For “5′-TGC TGC TCC TGG AGI GGT TGT AAG T-3′ (DNA TGCTGCTCCTGGAGNGGTTGTAAGT; DNA, [I] at 15, backbone and methylation of C not given here) [SEQ ID NO:78]”, the “Normalized IL-6 Response (Percentage of Positive Control)” value [9] was 26% and the “Normalized IL-6 Response (Percentage of Positive Control)” value [6] was 29%.
In the case of “5′-TGC TGC TCC TGG AGI GGT TGT-3′ (DNA TGCTGCTCCTGGAGNGGTTGT; DNA, [I] at 15, backbone and methylation of C not given here) [SEQ ID NO:66]”, the “Normalized IL-6 Response (Percentage of Positive Control)” value [9] was 20% and the “Normalized IL-6 Response (Percentage of Positive Control)” value [10] was 18%.
For “5′-UGC TGC TCC TTG AGI GG (DNA UGCTGCTCCTTGAGNGG; sugars from the 5' end m3 d14, [I] at 15, backbone not given here) [SEQ ID NO:117]”, the “Normalized IL-6 Response (Percentage of Positive Control)” value [4] was 17% and the “Normalized IL-6 Response (Percentage of Positive Control)” value [5] was 13%.
In the case of “5′-UGC TCC TGG AGG GGU UGU (DNA UGCTCCTGGAGGGGUUGU; sugars from the 5' end m3 d11 m4, backbone not given here) [SEQ ID NO:85]”, the “Normalized IL-6 Response (Percentage of Positive Control)” value [1] was 18% and the “Normalized IL-6 Response (Percentage of Positive Control)” value [2] was 18%.
“5′-TGC TTG TCC TGG AGI GGT GTT GT-3′ (DNA TGCTTGTCCTGGAGNGGTGTTGT; DNA, [I] at 15, backbone not given here) [SEQ ID NO:65]” was tested, and the “Normalized IL-6 Response (Percentage of Positive Control)” value [9] was 38% and the “Normalized IL-6 Response (Percentage of Positive Control)” value [10] was 21%.
With “5′-TGC TTG TCC TGG AGI GGT TGT-3′ (DNA TGCTTGTCCTGGAGNGGTTGT; DNA, [I] at 15, backbone and methylation of C not given here) [SEQ ID NO:74]” the “Normalized IL-6 Response (Percentage of Positive Control)” value [9] was 21%, the “Normalized IL-6 Response (Percentage of Positive Control)” value [8] was 25% and the “Normalized IL-6 Response (Percentage of Positive Control)” value [10] was 23%.
In the case of “5′-TGC TTG TCC TGG AGI GGT TGT AAG T-3′ (DNA TGCTTGTCCTGGAGNGGTTGTAAGT; DNA, [I] at 15, backbone and methylation of C not given here) [SEQ ID NO:64]”, the “Normalized IL-6 Response (Percentage of Positive Control)” value [9] was 33% and the “Normalized IL-6 Response (Percentage of Positive Control)” value [7] was 19%.
“5′-UGCTGCTCCTTGAGGGGTTGTTTGT (DNA NNNTGCTCCTTGAGGGGTTGTTTGT; listed as DNA, chemistry not fully specified) [SEQ ID NO:107]” was tested, and the “Normalized IL-6 Response (Percentage of Positive Control)” value [1] was 43% and the “Normalized IL-6 Response (Percentage of Positive Control)” value [2] was 43%.
With “5′-TGC TCC TTG AGG GGT TGT-3′ (DNA TGCTCCTTGAGGGGTTGT; DNA, backbone not given here; further chemistry not fully specified) [SEQ ID NO:69]” the “Normalized IL-6 Response (Percentage of Positive Control)” value [1] was 11% and the “Normalized IL-6 Response (Percentage of Positive Control)” value [2] was 11%.
In the case of “5′-UGCTTGTCCTGGAGGGGTTGT (DNA NNNTTGTCCTGGAGGGGTTGT; listed as DNA, chemistry not fully specified) [SEQ ID NO:87]”, the “Normalized IL-6 Response (Percentage of Positive Control)” value [4] was 16% and the “Normalized IL-6 Response (Percentage of Positive Control)” value [5] was 12%.
For “5′-TGCTTGTCCTGGAGGGGTTGT (DNA TGCTTGTCCTGGAGGGTTGT; listed as DNA, chemistry not fully specified) [SEQ ID NO:204]”, the “Normalized IL-6 Response (Percentage of Positive Control)” value [1] was 9%.
With “5′-UGC CAA TCC TGG AGI GGT GTT GT (DNA UGCCAATCCTGGAGNGGTGTTGT; sugars from the 5' end m3 d20, [I] at 15, backbone not given here) [SEQ ID NO:135]” the “Normalized IL-6 Response (Percentage of Positive Control)” value [7] was 42%.
In the case of “5′-UGC TTG TCC TGG AGI GGT TGT (DNA UGCTTGTCCTGGAGNGGTTGT; sugars from the 5' end m3 d18, [I] at 15, backbone not given here) [SEQ ID NO:123]”, the “Normalized IL-6 Response (Percentage of Positive Control)” value [8] was 35% and the “Normalized IL-6 Response (Percentage of Positive Control)” value [10] was 35%.
“5′-UGC TCC TGG AGG GGT TGT (DNA NNNTCCTGGAGGGGTTGT; listed as DNA, chemistry not fully specified) [SEQ ID NO:83]” was tested, and the “Normalized IL-6 Response (Percentage of Positive Control)” value [1] was 6% and the “Normalized IL-6 Response (Percentage of Positive Control)” value [2] was 6%.
For “5′-UGC TGC TCC TTG AGI GGT GTT GT (DNA UGCTGCTCCTTGAGNGGTGTTGT; sugars from the 5' end m3 d20, [I] at 15, backbone not given here) [SEQ ID NO:180]”, the “Normalized IL-6 Response (Percentage of Positive Control)” value [3] was 46%.
In the case of “5′-UGC TGC TCC TGG AGI GGT TGT (DNA UGCTGCTCCTGGAGNGGTTGT; sugars from the 5' end m3 d18, [I] at 15, backbone not given here) [SEQ ID NO:125]”, the “Normalized IL-6 Response (Percentage of Positive Control)” value [6] was 38%.
In the case of “5′-TGCTCCTGGAGGGGTTGTAAGT-3′ (DNA TGCTCCTGGAGGGGTTGTAAGT; DNA, backbone and methylation of C not given here; further chemistry not fully specified) [SEQ ID NO:67]”, the “Normalized IL-6 Response (Percentage of Positive Control)” value [1] was 8%, the “Normalized IL-6 Response (Percentage of Positive Control)” value [4] was 7% and the “Normalized IL-6 Response (Percentage of Positive Control)” value [5] was 4%. The “Normalized IL-6 Response (Percentage of Positive Control)” value [2] was 8%.
“5′-UGC HEG TCC TGG AGI GGT GTT GT (DNA NNNNTCCTGGAGNGGTGTTGT; HEG spacer, inosine, chemistry not fully specified) [SEQ ID NO:77]” was tested, and the “Normalized IL-6 Response (Percentage of Positive Control)” value (Experiment # 3, Max Conc 4.0 uM) was 24%.
